Experimental findings from patent US5591726A, “Heterocyclylalkyl diarylboron ester and thioester fungicidal agents” (American Cyanamid Company, priority 1994, dated 1997) are described below.

For experiment [1], the system named is Pseudocercosporella herpotrichoides. The experiment is described as follows: In vitro fungicidal evaluation, PSDCHE. Also: ranges in brackets are in %. The following applies: 25 ppm; 3-7 days at 21° C. The experiment is classed as cell-based. The protocol:
(§1) Test compounds are dissolved or suspended in acetone and dispersed into cell well plates containing a suspension of ground fungal mycelia/spores in a nutrient broth. Assay plates are incubated for 3-7 days at 21° C. Growth inhibition is measured visually and is rated using the following scale:
(§2) Untreated controls, solvent blanks and reference standards are included in each test.
(§3) Assay fungi include the plant pathogens, Pythium ultimum (PYTHUL); Rhizoctonia solani (RHIZSO); Fusarium oxysporum f. sp. cucumerinum (FUSOXC); and Pseudocercosporella herpotrichoides (PSDCHE).
(§4) When more than one test is run, the data are averaged. The compounds evaluated are reported by compound number given in Example 3.

Experiment [2] relates to Plasmopara viticola. Put plainly: In vivo fungicidal evaluation, Grape Downy Mildew (GDM). Also: ranges in brackets are in %. Conditions: 200 ppm foliar spray. The protocol:
(§5) Test compounds are dissolved or suspended in acetone and diluted with deionized water containing about 0.05% TWEEN®20, a polyoxyethylene sorbitan monolaurate surfactant manufactured by Atlas Chemical Industries, to give a concentration of 200 ppm. Host plants are sprayed with the test solution, dried and inoculated with fungi. When disease symptom development is optimal, the plants are rated for disease control according to the rating scale shown below. Each test contains inoculated treated plants, inoculated untreated plants and a reference standard. When more than one test is run, the data are averaged. The data obtained are shown in Table I. |GDM Grape Downy Mildew | Plasmopara viticola

Experiment [3] relates to Cladosporium cucumerinum (fenarimol-resistant and -sensitive strains). The experiment is classed as cell-based. Conditions: EC50 resistant strain / EC50 sensitive strain, 50 to 54 hours.
Experiment [4] has as its system Fusarium oxysporum f. sp. cucumerinum. The experiment is described as follows: In vitro fungicidal evaluation, FUSOXC. Also: ranges in brackets are in %. The experiment is classed as cell-based. Conditions: 25 ppm; 3-7 days at 21° C. The protocol:
as §1, §2, §3, §4

For experiment [5], the system named is Erysiphe graminis f. sp. tritici. Put plainly: In vivo fungicidal evaluation, Wheat Powdery Mildew (WPM). Also: ranges in brackets are in %. The following applies: 200 ppm foliar spray. The protocol:
as §5, with “|WPM Wheat Powdery” for “|GDM Grape Downy”, “Erysiphe graminis | f. sp. tritici” for “Plasmopara viticola”

Experiment [6] concerns Ustilago avenae (triadimefon-resistant and -sensitive strains). The format is cell-based. Conditions: EC50 resistant strain / EC50 sensitive strain, 50 to 54 hours.
The subject of experiment [7] is Venturia inaequalis. Put plainly: In vivo fungicidal evaluation, Apple Scab (AS). Also: ranges in brackets are in %. Conditions: 200 ppm foliar spray. The procedure:
as §5, with “|AS Apple Scab Venturia inaequalis” for “|GDM Grape Downy Mildew | Plasmopara viticola”

In experiment [8] the test system is Cercospora beticola. Put plainly: In vivo fungicidal evaluation, Sugar Beet Cercospora (SBC). Also: ranges in brackets are in %. The following applies: 200 ppm foliar spray. The procedure: as §5, with “|SBC Sugar Beet Cercospora” for “|GDM Grape Downy Mildew”, “Cercospora beticola” for “Plasmopara viticola”
The subject of experiment [9] is Botrytis cinerea. Put plainly: In vivo fungicidal evaluation, Pepper Botrytis (PB). Also: ranges in brackets are in %. Conditions: 200 ppm foliar spray. The protocol: as §5, with “|PB Pepper Botrytis Botrytis cinerea” for “|GDM Grape Downy Mildew | Plasmopara viticola”
The subject of experiment [10] is Rhizoctonia solani. Put plainly: In vitro fungicidal evaluation, RHIZSO. Also: ranges in brackets are in %. The experiment is classed as cell-based. Conditions: 25 ppm; 3-7 days at 21° C. The protocol:
as §1, §2, §3, §4

Experiment [11] deals with Pyricularia grisea. The experiment is classed as in vivo. Conditions: Rice Blast; 200 ppm foliar spray.
Experiment [12] has as its system Pythium ultimum. Put plainly: In vitro fungicidal evaluation, PYTHUL. Also: ranges in brackets are in %. The experiment is classed as cell-based. The following applies: 25 ppm; 3-7 days at 21° C. The protocol:
as §1, §2, §3, §4

Experiment [13] has as its system Alternaria solani. Put plainly: In vivo fungicidal evaluation, Tomato Early Blight (TEB). Also: ranges in brackets are in %. Conditions: 200 ppm foliar spray. The protocol:
as §5, with “|TEB Tomato Early Blight” for “|GDM Grape Downy Mildew”, “Alternaria solani” for “Plasmopara viticola”

The subject of experiment [14] is Septoria nodorum (propiconazole-resistant and -sensitive strains). The format is cell-based. The following applies: EC50 resistant strain / EC50 sensitive strain, 50 to 54 hours.
Experiment [15] concerns Septoria nodorum. The experiment is described as follows: In vivo fungicidal evaluation, Wheat Septoria Nodorum (WSN). The following applies: 200 ppm foliar spray. The protocol: Test compounds are dissolved or suspended in acetone and diluted with deionized water containing about 0.05% TWEEN®20, a polyoxyethylene sorbitan monolaurate surfactant manufactured by Atlas Chemical Industries, to give a concentration of 200 ppm.
Host plants are sprayed with the test solution, dried and inoculated with fungi. When disease symptom development is optimal, the plants are rated for disease control according to the rating scale shown below. Each test contains inoculated treated plants, inoculated untreated plants and a reference standard. When more than one test is run, the data are averaged.
WSN Wheat Septoria Nodorum

`Fc1ccc(B(OC(Cn2ccnc2)c2ccc(Cl)cc2Cl)c2ccc(F)cc2)cc1` (centres unmarked) [Compound 1, 1-(2,4-Dichlorophenyl)-2-(imidazol-1-yl)ethyl bis(p-fluorophenyl)borinate]: in experiment [1], the “Growth inhibition rating, PSDCHE” value is 0 (0). Moreover, the “Disease control rating, GDM” value in [2] is reported as 0 (0). For the same molecule, in experiment [3], the “Resistance Factor, Cladosporium cucumerinum” value was 1.5. In experiment [4], the “Growth inhibition rating, FUSOXC” value is given as 5 (60-89). The “Disease control rating, WPM” value in experiment [5] is on record as 8 (96-99). In experiment [6], the “Resistance Factor, Ustilago avenae” value was found to be 2.6. Also, the “Disease control rating, AS” value in experiment [7] is reported as 0 (0). Also, the “Disease control rating, SBC” value in experiment [8] is given as 6 (75-89). The “Disease control rating, PB” value in experiment [9] was 0 (0). For the same molecule, the “Growth inhibition rating, RHIZSO” value in [10] is listed as 7 (90-99). For the same molecule, in experiment [11], the “Disease control rating, RB” value is 8 (96-99). For the same molecule, the “Growth inhibition rating, PYTHUL” value in [12] was 5 (60-89). Further, the “Disease control rating, TEB” value in experiment [13] is reported as 4 (45-59). Moreover, in [14], the “Resistance Factor, Septoria nodorum” value was determined as 1.2. In addition, the “Disease control rating, WSN” value in experiment [15] is 0 (0).
Consider `Clc1ccc(C(OB(c2ccccc2)c2ccccc2)(c2cncnc2)c2ccccc2Cl)cc1` (centres unmarked) [Compound 2, (o-Chlorophenyl)(p-chlorophenyl)(5-pyrimidinyl)methyl diphenylborinate], for which the “Growth inhibition rating, PSDCHE” value in [1] is 0 (0). In experiment [2], the “Disease control rating, GDM” value is recorded as 3 (30-44). Moreover, the “Growth inhibition rating, FUSOXC” value in [4] was 9 (100). Besides, the “Disease control rating, WPM” value in [5] is listed as 8 (96-99). In addition, in [6], the “Resistance Factor, Ustilago avenae” value is listed as 1.3. In experiment [7], the “Disease control rating, AS” value is 9 (100). In [8], the “Disease control rating, SBC” value is given as 9 (100). Besides, the “Disease control rating, PB” value in [9] is given as 8 (96-99). Moreover, the “Growth inhibition rating, RHIZSO” value in experiment [10] is 9 (100). Further, in experiment [11], the “Disease control rating, RB” value was 0 (0). Further, in [12], the “Growth inhibition rating, PYTHUL” value is listed as 7 (90-99). For the same molecule, the “Disease control rating, TEB” value in experiment [13] is 8 (96-99). Moreover, in experiment [14], the “Resistance Factor, Septoria nodorum” value worked out at 1.3. Further, the “Disease control rating, WSN” value in experiment [15] was 8 (96-99).
On to `CC(C)(C)C(CCc1ccc(Cl)cc1)(Cn1cncn1)OB(c1ccccc1)c1ccccc1` (centres unmarked) [Compound 3, 1-Tert-butyl-3-(p-chlorophenyl)-1-(1H-1,2,4-triazol-1-ylmethyl)propyl diphenylborinate], for which the “Growth inhibition rating, PSDCHE” value in experiment [1] is given as 0 (0). Also, the “Disease control rating, GDM” value in [2] is 9 (100). In experiment [3], the “Resistance Factor, Cladosporium cucumerinum” value stood at 1.7. Further, the “Growth inhibition rating, FUSOXC” value in experiment [4] was 9 (100). Moreover, the “Disease control rating, WPM” value in experiment [5] is recorded as 8 (96-99). Further, the “Resistance Factor, Ustilago avenae” value in experiment [6] came out at 2.0. In [7], the “Disease control rating, AS” value was 8 (96-99). The “Disease control rating, SBC” value in [8] was 6 (75-89). The “Disease control rating, PB” value in [9] is given as 6 (75-89). Besides, the “Growth inhibition rating, RHIZSO” value in experiment [10] is given as 9 (100). The “Disease control rating, RB” value in experiment [11] is on record as 6 (75-89). Besides, the “Growth inhibition rating, PYTHUL” value in experiment [12] is recorded as 9 (100). The “Disease control rating, TEB” value in experiment [13] is on record as 6 (75-89). The “Resistance Factor, Septoria nodorum” value in experiment [14] stood at 1.8. For the same molecule, the “Disease control rating, WSN” value in experiment [15] is reported as 0 (0).
Take `CC(C)(C)C(CCc1ccc(Cl)cc1)(Cn1cncn1)OB(c1ccc(F)cc1)c1ccc(F)cc1` (centres unmarked) [Compound 4, 1-Tert-butyl-3-(p-chlorophenyl)-1-(1H-1,2,4-triazol-1-ylmethyl)propyl bis(p-fluorophenyl)borinate]: the “Growth inhibition rating, PSDCHE” value in experiment [1] was 0 (0). The “Disease control rating, GDM” value in [2] is listed as 8 (96-99). For the same molecule, in experiment [3], the “Resistance Factor, Cladosporium cucumerinum” value was 1.3. In addition, the “Growth inhibition rating, FUSOXC” value in [4] is given as 9 (100). Moreover, the “Disease control rating, WPM” value in experiment [5] is reported as 8 (96-99). In experiment [6], the “Resistance Factor, Ustilago avenae” value turned out to be 2.3. The “Disease control rating, AS” value in experiment [7] is reported as 7 (90-95). Besides, in experiment [8], the “Disease control rating, SBC” value is on record as 6 (75-89). In addition, the “Disease control rating, PB” value in experiment [9] is listed as 7 (90-95). Also, the “Growth inhibition rating, RHIZSO” value in experiment [10] is reported as 9 (100). In addition, the “Disease control rating, RB” value in experiment [11] is given as 6 (75-89). Also, the “Growth inhibition rating, PYTHUL” value in [12] is recorded as 9 (100). In addition, in [13], the “Disease control rating, TEB” value is 6 (75-89). The “Resistance Factor, Septoria nodorum” value in experiment [14] was determined as 1.9. Further, the “Disease control rating, WSN” value in experiment [15] is on record as 2 (15-29).
Turning to `Fc1ccc(B(OC(c2ccc(Cl)cc2)(c2cncnc2)c2ccccc2Cl)c2ccc(F)cc2)cc1` (centres unmarked) [Compound 5, (o-Chlorophenyl)(p-chlorophenyl)(5-pyrimidinyl)methyl bis(p-fluorophenyl)borinate], the “Growth inhibition rating, PSDCHE” value in experiment [1] is on record as 0 (0). Also, the “Disease control rating, GDM” value in [2] is recorded as 0 (0). Besides, the “Growth inhibition rating, FUSOXC” value in experiment [4] is listed as 0 (0). Further, the “Disease control rating, WPM” value in experiment [5] is on record as 8 (96-99). Besides, the “Disease control rating, AS” value in [7] is reported as 7 (90-95). Besides, the “Disease control rating, SBC” value in experiment [8] was 7 (90-95). For the same molecule, in [9], the “Disease control rating, PB” value is recorded as 0 (0). Also, the “Growth inhibition rating, RHIZSO” value in [10] was 7 (90-99). In addition, the “Disease control rating, RB” value in [11] was 0 (0). In addition, in experiment [12], the “Growth inhibition rating, PYTHUL” value is listed as 1 (1-29). The “Disease control rating, TEB” value in [13] is 3 (30-44). In addition, in [15], the “Disease control rating, WSN” value is recorded as 7 (90-95).
Turning to `Clc1ccc(COC(Cn2ccnc2)c2ccc(Cl)cc2Cl)cc1` (centres unmarked) [Econazole nitrate, reference compound], in experiment [3], the “Resistance Factor, Cladosporium cucumerinum” value was 2.0. In addition, the “Resistance Factor, Ustilago avenae” value in experiment [6] worked out at 2.0. In addition, the “Resistance Factor, Septoria nodorum” value in experiment [14] is on record as 1.8.
On to `Clc1ccc(COC(Cn2ccnc2)c2ccc(Cl)cc2Cl)c(Cl)c1` (centres unmarked) [Miconazole nitrate, reference compound], for which the “Resistance Factor, Cladosporium cucumerinum” value in experiment [3] is listed as 2.4. Further, the “Resistance Factor, Ustilago avenae” value in [6] was found to be 4.1. Moreover, the “Resistance Factor, Septoria nodorum” value in experiment [14] came out at 2.5.
